Measurements: PMC12274840 (The Journal of Biological Chemistry, 2025)
Converted amounts (≈) assume the structure as drawn. Where two headings read alike, the source gives them in different places.

What was measured:
[1] = tested on: E. coli KA797 cells carrying pUK21 with CTX-M-14 WT (Tat); assay: microbe, parasite or virus in culture; type: cell-based; details: Escherichia coli, antibiotic alone
[2] = tested on: E. coli KA797 cells carrying pUK21 with TEM-1 WT (Sec); assay: microbe, parasite or virus in culture; type: cell-based; details: Escherichia coli, antibiotic alone
BlaC WT = molecular target: T1, BlaC WT (Mycobacterium tuberculosis, UniProt P9WKD3); type: biochemical; details: pH 6.4
T1 construct: correspond to residue numbers 41-307 of BlaC (Uniprot entry P9WKD3-1); His tag with TEV cleavage site (N); made in house; host or cells: E. coli BL21 (DE3) pLysS

CTX-M-14 Y105G = molecular target: T2, CTX-M-14 Y105G (Escherichia coli, UniProt Q9L5C7, Y108G); type: biochemical
T2 construct: 29 to 291 of CTX-M-14 (Q9L5C7); His tag with TEV cleavage site (N); made in house; host or cells: E. coli BL21 (DE3) pLysS

[3] = tested on: E. coli KA797 cells carrying BlaC position 105 library; type: cell-based, Escherichia coli; details: carbenicillin; for Fi CAR AVG: average of replicates
[4] = tested on: E. coli KA797 cells carrying CTX-M-14 position 105 library; type: cell-based
[5] = tested on: E. coli KA797 cells carrying NmcA position 105 library; type: cell-based

CC1(C)S[C@@H]2[C@H](NC(=O)C(C(=O)O)c3ccccc3)C(=O)N2[C@H]1C(=O)O (stereo partly shown) [carbenicillin]
MIC [1]: 16 mg/mL (≈ 42.3 mM)
MIC [2]: 32 mg/mL (≈ 84.6 mM)
kcat (BlaC WT): 0.51 ± 00.2 s⁻¹
Km (BlaC WT; read-out: KM^app): 5.5 ± 0.7 µM
kcat (CTX-M-14 Y105G; phosphate buffer pH 6.4, 25 °C): 11 ± 2 s⁻¹
Km (CTX-M-14 Y105G; read-out: KM^app, phosphate buffer pH 6.4, 25 °C): 228 ± 61 µM
Fi CAR AVG ([3]; AA 105 Ala): -0.273
Fi CAR 1 ([3]; AA 105 Ala, replicate 1): -0.487
Fi CAR 3 ([3]; AA 105 Ala, replicate 3): -0.060
Fi CAR AVG ([3]; AA 105 Arg): 0.354
Fi CAR 1 ([3]; AA 105 Arg, replicate 1): -0.038
Fi CAR 2 ([3]; AA 105 Arg, replicate 2): 0.623
Fi CAR 3 ([3]; AA 105 Arg, replicate 3): 0.477
Fi CAR AVG ([3]; AA 105 Asn): 0.070
Fi CAR 1 ([3]; AA 105 Asn, replicate 1): 0.359
Fi CAR 2 ([3]; AA 105 Asn, replicate 2): -0.104
Fi CAR 3 ([3]; AA 105 Asn, replicate 3): -0.045
Fi CAR AVG ([3]; AA 105 Asp): 0.382
Fi CAR 1 ([3]; AA 105 Asp, replicate 1): 0.054
Fi CAR 2 ([3]; AA 105 Asp, replicate 2): 0.201
Fi CAR 3 ([3]; AA 105 Asp, replicate 3): 0.891
Significance (Fi CAR AVG) ([3]; AA 105 Cys): +
Fi CAR AVG ([3]; AA 105 Cys): 0.765
Fi CAR 1 ([3]; AA 105 Cys, replicate 1): 0.616
Fi CAR 2 ([3]; AA 105 Cys, replicate 2): 0.636
Fi CAR 3 ([3]; AA 105 Cys, replicate 3): 1.043
Significance (Fi CAR AVG) ([3]; AA 105 Gln): +
Fi CAR AVG ([3]; AA 105 Gln): 1.328
Fi CAR 1 ([3]; AA 105 Gln, replicate 1): 1.419
Fi CAR 2 ([3]; AA 105 Gln, replicate 2): 1.237
Fi CAR AVG ([3]; AA 105 Glu): 0.421
Fi CAR 1 ([3]; AA 105 Glu, replicate 1): 1.372
Fi CAR 2 ([3]; AA 105 Glu, replicate 2): -0.419
Fi CAR 3 ([3]; AA 105 Glu, replicate 3): 0.311
Significance (Fi CAR AVG) ([3]; AA 105 Gly): -
Fi CAR AVG ([3]; AA 105 Gly): -0.444
Fi CAR 1 ([3]; AA 105 Gly, replicate 1): -0.596
Fi CAR 2 ([3]; AA 105 Gly, replicate 2): -0.209
Fi CAR 3 ([3]; AA 105 Gly, replicate 3): -0.526
Significance (Fi CAR AVG) ([3]; AA 105 His): +
Fi CAR AVG ([3]; AA 105 His): 2.514
Fi CAR 1 ([3]; AA 105 His, replicate 1): 2.622
Fi CAR 2 ([3]; AA 105 His, replicate 2): 2.393
Fi CAR 3 ([3]; AA 105 His, replicate 3): 2.527
Fi CAR AVG ([3]; AA 105 Ile (WT)): 0.000
Fi CAR 1 ([3]; AA 105 Ile (WT), replicate 1): 0.000
Fi CAR 2 ([3]; AA 105 Ile (WT), replicate 2): 0.000
Fi CAR 3 ([3]; AA 105 Ile (WT), replicate 3): 0.000
Significance (Fi CAR AVG) ([3]; AA 105 Leu): +
Fi CAR AVG ([3]; AA 105 Leu): 0.730
Fi CAR 1 ([3]; AA 105 Leu, replicate 1): 1.223
Fi CAR 2 ([3]; AA 105 Leu, replicate 2): 0.445
Fi CAR 3 ([3]; AA 105 Leu, replicate 3): 0.522
Fi CAR AVG ([3]; AA 105 Met): 0.034
Fi CAR 1 ([3]; AA 105 Met, replicate 1): 0.791
Fi CAR 3 ([3]; AA 105 Met, replicate 3): -0.722
Significance (Fi CAR AVG) ([3]; AA 105 Phe): +
Fi CAR AVG ([3]; AA 105 Phe): 3.398
Fi CAR 1 ([3]; AA 105 Phe, replicate 1): 3.349
Fi CAR 2 ([3]; AA 105 Phe, replicate 2): 3.354
Fi CAR 3 ([3]; AA 105 Phe, replicate 3): 3.492
Significance (Fi CAR AVG) ([3]; AA 105 Ser): +
Fi CAR AVG ([3]; AA 105 Ser): 0.539
Fi CAR 1 ([3]; AA 105 Ser, replicate 1): 0.311
Fi CAR 2 ([3]; AA 105 Ser, replicate 2): 0.896
Fi CAR 3 ([3]; AA 105 Ser, replicate 3): 0.410
Fi CAR AVG ([3]; AA 105 Thr): -0.255
Fi CAR 2 ([3]; AA 105 Thr, replicate 2): -0.487
Fi CAR 3 ([3]; AA 105 Thr, replicate 3): -0.023
Significance (Fi CAR AVG) ([3]; AA 105 Trp): +
Fi CAR AVG ([3]; AA 105 Trp): 3.306
Fi CAR 1 ([3]; AA 105 Trp, replicate 1): 3.226
Fi CAR 2 ([3]; AA 105 Trp, replicate 2): 3.199
Fi CAR 3 ([3]; AA 105 Trp, replicate 3): 3.493
Significance (Fi CAR AVG) ([3]; AA 105 Tyr): +
Fi CAR AVG ([3]; AA 105 Tyr): 3.672
Fi CAR 1 ([3]; AA 105 Tyr, replicate 1): 3.556
Fi CAR 2 ([3]; AA 105 Tyr, replicate 2): 3.582
Fi CAR 3 ([3]; AA 105 Tyr, replicate 3): 3.878
Fi CAR AVG ([3]; AA 105 Val): -0.016
Fi CAR 1 ([3]; AA 105 Val, replicate 1): 0.268
Fi CAR 2 ([3]; AA 105 Val, replicate 2): 0.226
Fi CAR 3 ([3]; AA 105 Val, replicate 3): -0.543
WT abs Fi 1 ([3]; WT (Ile 105) absolute fitness, replicate 1): -1.491
WT abs Fi 2 ([3]; WT (Ile 105) absolute fitness, replicate 2): -1.775
WT abs Fi 3 ([3]; WT (Ile 105) absolute fitness, replicate 3): -2.001
Significance of average fitness ([4]; CTX-M-14 AA 105 Ala): -
Significance of average fitness ([4]; CTX-M-14 AA 105 Arg): -
Significance of average fitness ([4]; CTX-M-14 AA 105 Asn): -
Significance of average fitness ([4]; CTX-M-14 AA 105 Asp): -
Significance of average fitness ([4]; CTX-M-14 AA 105 Cys): -
Significance of average fitness ([4]; CTX-M-14 AA 105 Gln): -
Significance of average fitness ([4]; CTX-M-14 AA 105 Glu): -
Significance of average fitness ([4]; CTX-M-14 AA 105 Gly): -
Significance of average fitness ([4]; CTX-M-14 AA 105 His): -
Significance of average fitness ([4]; CTX-M-14 AA 105 Ile): -
Significance of average fitness ([4]; CTX-M-14 AA 105 Leu): -
Significance of average fitness ([4]; CTX-M-14 AA 105 Lys): -
Significance of average fitness ([4]; CTX-M-14 AA 105 Met): -
Significance of average fitness ([4]; CTX-M-14 AA 105 Pro): -
Significance of average fitness ([4]; CTX-M-14 AA 105 Ser): -
Significance of average fitness ([4]; CTX-M-14 AA 105 Thr): -
Significance of average fitness ([4]; CTX-M-14 AA 105 Val): -
WT abs Fi 1 (absolute fitness of wild type, Replicate 1) ([4]; CTX-M-14 WT (Tyr 105)): 0.706
Fi AVG (average fitness of replicates) ([5]; NmcA AA 105 Ala): -0.798
Significance of average fitness ([5]; NmcA AA 105 Ala): -
Fi AVG (average fitness of replicates) ([5]; NmcA AA 105 Arg): -0.438
Significance of average fitness ([5]; NmcA AA 105 Arg): -
Fi AVG (average fitness of replicates) ([5]; NmcA AA 105 Asn): -0.329
Significance of average fitness ([5]; NmcA AA 105 Asn): -
Fi AVG (average fitness of replicates) ([5]; NmcA AA 105 Asp): -0.908
Significance of average fitness ([5]; NmcA AA 105 Asp): -
Fi AVG (average fitness of replicates) ([5]; NmcA AA 105 Cys): -0.727
Significance of average fitness ([5]; NmcA AA 105 Cys): -
Fi AVG (average fitness of replicates) ([5]; NmcA AA 105 Gln): -0.466
Significance of average fitness ([5]; NmcA AA 105 Gln): -
Fi AVG (average fitness of replicates) ([5]; NmcA AA 105 Glu): -0.772
Significance of average fitness ([5]; NmcA AA 105 Glu): -
Fi AVG (average fitness of replicates) ([5]; NmcA AA 105 Gly): -0.274
Significance of average fitness ([5]; NmcA AA 105 Gly): -
Fi AVG (average fitness of replicates) ([5]; NmcA AA 105 His): 0.000
Fi AVG (average fitness of replicates) ([5]; NmcA AA 105 Ile): -0.761
Significance of average fitness ([5]; NmcA AA 105 Ile): -
Fi AVG (average fitness of replicates) ([5]; NmcA AA 105 Leu): -0.728
Significance of average fitness ([5]; NmcA AA 105 Leu): -
Fi AVG (average fitness of replicates) ([5]; NmcA AA 105 Lys): -0.642
Significance of average fitness ([5]; NmcA AA 105 Lys): -
Fi AVG (average fitness of replicates) ([5]; NmcA AA 105 Met): -0.481
Significance of average fitness ([5]; NmcA AA 105 Met): -
Fi AVG (average fitness of replicates) ([5]; NmcA AA 105 Phe): -0.458
Significance of average fitness ([5]; NmcA AA 105 Phe): -
Fi AVG (average fitness of replicates) ([5]; NmcA AA 105 Pro): -0.671
Significance of average fitness ([5]; NmcA AA 105 Pro): -
Fi AVG (average fitness of replicates) ([5]; NmcA AA 105 Ser): -0.589
Significance of average fitness ([5]; NmcA AA 105 Ser): -
Fi AVG (average fitness of replicates) ([5]; NmcA AA 105 Thr): -0.842
Significance of average fitness ([5]; NmcA AA 105 Thr): -
Fi AVG (average fitness of replicates) ([5]; NmcA AA 105 Trp): -0.118
Significance of average fitness ([5]; NmcA AA 105 Trp): -
Fi AVG (average fitness of replicates) ([5]; NmcA AA 105 Tyr): -0.304
Significance of average fitness ([5]; NmcA AA 105 Tyr): -
Fi AVG (average fitness of replicates) ([5]; NmcA AA 105 Val): -0.711
Significance of average fitness ([5]; NmcA AA 105 Val): -
WT abs Fi 1 (absolute fitness) ([5]; NmcA WT, replicate 1): 0.462
WT abs Fi 2 (absolute fitness) ([5]; NmcA WT, replicate 2): 0.578
